US20260355097A1, “MICROBIOME FRIENDLY SUBSTANCES AND MICROBIOME FRIENDLY COSMETIC FORMULATIONS” (BASF SE, priority 2023, published 2026)
Where a name gives a salt, the structure may show the parent alone.

What follows are compounds tested on Staphylococcus aureus, Staphylococcus epidermidis, Malassezia furfur (assay: Lowest MIC over the microorganisms tested). Conditions: lowest MIC value obtained over the tested microorganisms.
Format: cell-based
Experimental: Minimal Inhibitory Concentration tests are tests typically used to measure growth inhibition by a substance. MICs are defined as the lowest test concentrations of the test substance at which growth of specific microorganisms are inhibited.
In the present case predefined dilutions of the test substance in the appropriate culture medium were prepared and inoculated with the microorganism of interest. After incubation, the test organisms were cultured over a time-period and under conditions normally allowing growth of the microorganism. Vehicle controls (vehicle=solvent used, e. g. water) were also assessed to determine growth without the test substance. The organisms of interest tested were the representative strains S. aureus (found on the skin, often a pathogen), S. epidermidis and Malassezia furfur. The higher the MIC value, the less inhibition of growth is observed. In the following results the test concentrations are given as percent of active substance content.
For each substance the lowest MIC value obtained determines whether this substance in useful as microbiome friendly cosmetic ingredient. A substance is useful as microbiome friendly cosmetic ingredient, if this lowest MIC is not lower than a threshold value. This threshold value depends on the type of the substance (solubilizer, emulsifier etc.) and is related to the amount in which these types of substances are generally used in common cosmetic formulations.

| Compound | lowest MIC [% by weight] |
| --- | --- |
| CCCCCCCCCCCCCCCCCC(=O)OCC(O)CO.O=C(O)CC(O)(CC(=O)O)C(=O)O (stereo not drawn) [Glyceryl Stearate Citrate] | >3 |
| OCC(O)CO [Glycerin] | 20.00 |
| Conjugated Linoleic Acid | >1 |
| CCOC(=O)CC(O)(CC(=O)OCC)C(=O)OCC [Triethyl Citrate] | 1 |
| CCCCCCCCCCCCCCCCOP(=O)([O-])[O-].[K+].[K+] [Potassium Cetyl Phosphate] | 1.00 |
| Sodium Cetearyl Sulfate | 0.08 |
| Disodium Cetearyl Sulfosuccinate | 0.05 |
| CC(O)CCO (stereo not drawn) [Butylene Glycol, 1,3-Butanediol] | 20.00 |
| CCCCCCCC/C=C\CCCCCCCC(=O)OCC(O)CO (stereo not drawn) [Glyceryl Oleate] | >2 |
| OCCCCO [1.4 Butandiol, 1,4 Butandiol] | >1 |
| O=C(O)c1ccccc1 [Sodium Benzoate] | 0.25 |
| CCCCC/C=C\C/C=C\CCCCCCCC(=O)OCC [ethyl linoleate] | >1 |
